Assay results reported in patent US20030224978A1, “Compounds and methods for modulating apoptosis” (McGill University, priority 1996, published 2003).
Entries after “also recorded” stand apart in the source; their conditions may differ. Positions of bridges follow the written chain, without caps; N, C: chain ends. Residues, ends and D or L forms follow the SMILES beside them.

Experiments:
in vitro [1] = format: cell-based; conditions: human
Protocol: (§1) N-Ac-CHAVC-NH2 (SEQ ID NO:10) and the control peptide N-Ac-CHGVC-NH2 (SEQ ID NO:20) were evaluated for possible cytotoxic effects on human microvascular endothelial (HMVEC; Clonetics), human umbilical vein endothelial (HUVEC; ATCC #CRL-1730), IAFp2 (human fibroblast cell line; Institute Armand-Frapier, Montreal, Quebec), WI-38 (human fibroblast cell line; ATCC #CCL-75), MDA-MB231 (human breast cancer cell line; ATCC #HTB-26), and PC-3 (human prostate cancer cell line; ATCC #CRL-1435) cells utilizing the MTT assay (Plumb et al., Cancer Res. 49:4435-4440, 1989). Neither of the peptides was cytotoxic at concentrations up to and including 100 μM. Similarly, neither of the peptides was capable of inhibiting the proliferation of the above cell lines at concentrations up to 100 μM, as judged by ^3H-thymidine incorporation assays.

in vitro [2] = format: cell-based; conditions: human; remark: listed apart in the source
Protocol: as §1

in vitro [3] = format: cell-based; conditions: human; remark: listed apart in the source
Protocol: as §1

in vitro [4] = format: cell-based; conditions: human; remark: listed apart in the source
Protocol: as §1

chick N-cadherin = target: T1, chick N-cadherin (Gallus gallus, UniProt P10288); experiment: N-cadherin dependent neurite outgrowth of rat cerebellar neurons on N-cadherin expressing 3T3 cells (Example 14); format: cell-based; conditions: for inhibition at 250 µg/mL: NIH3T3, 250 μg/mL, 16-18 hours; for reduction in inhibitory activity on flanking HAV with E-cadherin amino acids: Table 8, 250 μg/mL; for inhibitory activity on N-cadherin dependent neurite outgrowth, in words: Tables 8 and 9, 250 or 125 μg/mL; for activity on N-cadherin dependent neurite outgrowth at lower concentration, in words: concentrations of 125 µg/mL or below
T1 construct: expressed in transfected cells; host or cells: 3T3 fibroblasts
T1 sequence (P10288 165-912): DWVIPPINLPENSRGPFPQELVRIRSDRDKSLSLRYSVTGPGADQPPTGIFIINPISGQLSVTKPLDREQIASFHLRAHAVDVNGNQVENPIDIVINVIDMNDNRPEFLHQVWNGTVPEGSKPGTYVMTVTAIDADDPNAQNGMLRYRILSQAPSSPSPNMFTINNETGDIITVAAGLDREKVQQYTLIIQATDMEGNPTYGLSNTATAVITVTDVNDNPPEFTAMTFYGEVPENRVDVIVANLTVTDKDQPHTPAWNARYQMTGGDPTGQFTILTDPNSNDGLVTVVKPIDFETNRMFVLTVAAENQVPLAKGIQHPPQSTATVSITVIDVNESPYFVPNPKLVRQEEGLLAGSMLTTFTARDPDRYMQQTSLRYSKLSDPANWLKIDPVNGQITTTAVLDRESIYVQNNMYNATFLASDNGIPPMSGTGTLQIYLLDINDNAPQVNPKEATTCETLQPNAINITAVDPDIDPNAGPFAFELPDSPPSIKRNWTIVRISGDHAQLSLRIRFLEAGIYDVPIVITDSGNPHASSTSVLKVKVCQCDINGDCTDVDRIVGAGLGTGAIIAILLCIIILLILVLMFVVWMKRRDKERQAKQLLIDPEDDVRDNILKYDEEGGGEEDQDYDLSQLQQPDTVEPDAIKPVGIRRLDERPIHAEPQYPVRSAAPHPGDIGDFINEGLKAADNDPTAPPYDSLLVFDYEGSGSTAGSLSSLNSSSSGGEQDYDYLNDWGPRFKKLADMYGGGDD
Protocol: Cell culture and neurite outgrowth assays. Co-cultures of cerebellar neurons on monolayers of control 3T3 cells and monolayers of transfected 3T3 cells that express physiological levels of chick N-cadherin or human L1 were established as previously described (Williams et al., Neuron 13:583-594, 1994). In brief, 80,000 3T3 cells (control and transfected) were plated into individual chambers of an eight-chamber tissue culture slide coated with polylysine and fibronectin and cultured in DMEM/10% FCS. After 24 hours, when confluent monolayers had formed, the medium was removed and 3000 cerebellar neurons isolated from post-natal day 2-3 rats were plated into each well in SATO media (Doherty et al., Nature 343:464-466, 1990) supplemented with 2% FCS. All of the test peptides were added immediately before the neurons as a 2×stock prepared in SATO/2% FCS. The co-cultures were maintained for 16-18 hours, at which time they were fixed and immunostained for GAP-43 which is present only in the neurons and delineates the neuritic processes. The mean length of the longest neurite per cell was measured for 150-200 neurons sampled in replicate cultures as previously described (Williams et al., Neuron 13:583-594, 1994). […] Dose-response curves were evaluated and the EC50 values determined.
Effects of cyclic HAV peptides on N-cadherin function. The ability of N-Ac-CHAVC-NH2 (SEQ ID NO:10; compound 1) to inhibit neurite outgrowth was initially tested. This cyclic peptide has the cadherin CAR sequence (HAV) and no flanking amino acid residues. Neurons were cultured on confluent monolayers of control (untransfected) and N-cadherin expressing 3T3 cells for 16-18 hours. The cells were then fixed and the length of the longest neurite on 150-200 neurons was determined by standard assay, as described above. FIG. 24 gives the mean neurite length in a representative experiment where cerebellar neurons have been cultured over control and N-cadherin expressing cells. In the absence of peptide, the mean length of the longest neurite per cell was approximately double on the N-cadherin expressing cells, as compared to 3T3 cells. This response requires N-cadherin function in both the neuron and transfected fibroblast.

[5] = test system: angiogenesis in chick embryonic chorioallantoic membranes; experiment: Chick chorioallantoic membrane angiogenesis assay; format: in vivo; conditions: 3, 17, and 33 μg/mesh
Protocol: The chick chorioallantoic membrane assay was used to assess the effects of cyclic peptides on angiogenesis (Iruela-Arispe et al., Molecular Biology of the Cell 6:327-343, 1995). Cyclic peptides were embedded in a mesh composed of vitrogen at concentrations of 3, 17, and 33 μg/mesh. The meshes were then applied to 12-day-old chick embryonic chorioallantoic membranes. After 24 hours, the effects of the peptides on angiogenesis were assessed by computer assisted morphometric analysis.
For each concentration of cyclic peptide, the percent inhibition of angiogenesis (relative to the level of angiogenesis in the absence of cyclic peptide) is provided. Assays were performed in the presence (+) or absence (−) of […] VEGF. For example, the cyclic peptide N-Ac-CHAVC-NH2 (SEQ ID NO:10) inhibited angiogenesis by 46%, 51%, and 51% at concentrations of 3, 17, and 33 μg/mesh, respectively.

| Compound | IC50 (in vitro [1]) [µM] | IC50 (in vitro [2]) [µM] | IC50 (in vitro [3]) [µM] | IC50 (in vitro [4]) [µM] | inhibition at 250 µg/mL (chick N-cadherin) [%] | also measured |
| --- | --- | --- | --- | --- | --- | --- |
| CC(=O)N[C@H]1CSSC[C@@H](C(N)=O)NC(=O)[C@H](CC(=O)O)NC(=O)[C@H](C(C)C)NC(=O)[C@H](C)NC(=O)[C@H](Cc2cnc[nH]2)NC1=O [N-Ac-CHAVDC-NH2] (Ac-CHAVDC-NH2; disulfide 1-6) |  |  |  |  |  | EC50 (chick N-cadherin; from dose-response curve): 93 µM |
| N-Ac-CLRAHAVDC-NH2 (disulfide 1-9 (inferred)) |  |  |  |  |  | inhibitory activity on N-cadherin dependent neurite outgrowth, in words (chick N-cadherin): potent inhibitors of neurite outgrowth; also recorded: partial recovery of activity; activity on N-cadherin dependent neurite outgrowth at lower concentration, in words (chick N-cadherin): lost activity |
| CC(=O)N[C@H]1CSSC[C@@H](C(N)=O)NC(=O)[C@H](Cc2c[nH]cn2)NC(=O)CNC(=O)[C@H](C(C)C)NC1=O [N-Ac-CVGHC-NH2, reference compound] (Ac-CVGHC-NH2; disulfide 1-5 (inferred)) | > 100 | > 100 | > 100 | > 100 |  |  |
| N-Ac-CRAHAVDC-NH2 (disulfide 1-8 (inferred)) |  |  |  |  |  | inhibitory activity on N-cadherin dependent neurite outgrowth, in words (chick N-cadherin): completely eliminated inhibitory activity |
| N-Ac-CAHAVC-NH2 (disulfide 1-6 (inferred)) |  |  |  |  |  | activity on N-cadherin dependent neurite outgrowth at lower concentration, in words (chick N-cadherin): lost activity |
| CC[C@H](C)[C@@H]1NC(=O)[C@H](CC(=O)O)NC(=O)[C@H](C(C)C)NC(=O)CNC(=O)[C@H](Cc2c[nH]cn2)NC(=O)[C@H](C)NC(=O)[C@@H](N)CSSC[C@@H](C(N)=O)NC1=O [reference compound] (H-CAHGVDIC-NH2; disulfide 1-8) | > 100 | > 100 | > 100 | > 100 | 7.2 ± 8.1 |  |
| CC[C@H](C)[C@@H]1NC(=O)[C@H](CC(=O)O)NC(=O)[C@H](C(C)C)NC(=O)[C@H](C)NC(=O)[C@H](Cc2c[nH]cn2)NC(=O)[C@H](C)NC(=O)[C@@H](N)CSSC[C@@H](C(N)=O)NC1=O (H-CAHAVDIC-NH2; disulfide 1-8) | > 100 | > 100 | > 100 | > 100 | -3.7 ± 2.9 | inhibitory activity on N-cadherin dependent neurite outgrowth, in words (chick N-cadherin): total loss of activity; inhibitory activity on N-cadherin dependent neurite outgrowth, in words (chick N-cadherin; listed as compound 15): lost activity |
| N-Ac-CHAVSSC-NH2 (disulfide 1-7 (inferred)) |  |  |  |  |  | reduction in inhibitory activity on flanking HAV with E-cadherin amino acids (chick N-cadherin): substantial |
| CC(=O)N[C@H]1CSSC[C@@H](C(N)=O)NC(=O)[C@H](Cc2c[nH]cn2)NC(=O)[C@H](C)NC(=O)[C@H](C(C)C)NC1=O [N-Ac-CVAHC-NH2] (Ac-CVAHC-NH2; disulfide 1-5 (inferred)) | > 100 | > 100 | > 100 | > 100 |  | inhibition of angiogenesis, in words [5]: relatively inactive |
| N-Ac-CSHAVSC-NH2 (disulfide 1-7 (inferred)) |  |  |  |  |  | reduction in inhibitory activity on flanking HAV with E-cadherin amino acids (chick N-cadherin): complete |
| N-Ac-CHAVDINGC-NH2 (disulfide 1-9 (inferred)) |  |  |  |  |  | inhibitory activity on N-cadherin dependent neurite outgrowth, in words (chick N-cadherin): completely abrogates activity |
| N-Ac-CLRAHAVC-NH2 (disulfide 1-8 (inferred)) |  |  |  |  |  | inhibitory activity on N-cadherin dependent neurite outgrowth, in words (chick N-cadherin): detrimental affect |
| CC(=O)N[C@H]1CSSC[C@@H](C(N)=O)NC(=O)[C@H](CO)NC(=O)[C@H](C(C)C)NC(=O)CNC(=O)[C@H](Cc2c[nH]cn2)NC1=O [N-Ac-CHGVSC-NH2, reference compound] (Ac-CHGVSC-NH2; disulfide 1-6) | > 100 | > 100 | > 100 | > 100 | -6.7 ± 5.8 |  |

Now from value to compound, other results behind:

| IC50 (in vitro [1]) [µM] | IC50 (in vitro [2]) [µM] | IC50 (in vitro [3]) [µM] | IC50 (in vitro [4]) [µM] | inhibition at 250 µg/mL (chick N-cadherin) [%] | Compound | also measured |
| --- | --- | --- | --- | --- | --- | --- |
| > 100 | > 100 | > 100 | > 100 | 11 ± 8.6 | CC(=O)N[C@H]1CSSC[C@@H](C(N)=O)NC(=O)[C@H](C(C)C)NC(=O)[C@H](C)NC(=O)[C@H](Cc2c[nH]cn2)NC(=O)[C@H](CO)NC1=O [N-Ac-CSHAVC-NH2, N-Ac-Cys-Ser-His-Ala-Val-Cys-NH2] (Ac-CSHAVC-NH2; disulfide 1-6) | reduction in inhibitory activity on flanking HAV with E-cadherin amino acids (chick N-cadherin): complete |
| > 100 | > 100 | > 100 | > 100 | 12.5 ± 7.5 | CC(=O)N[C@H]1CSSC[C@@H](C(N)=O)NC(=O)[C@H](C(C)C)NC(=O)CNC(=O)[C@H](Cc2c[nH]cn2)NC(=O)[C@H](CO)NC1=O [N-Ac-CSHGVC-NH2, reference compound] (Ac-CSHGVC-NH2; disulfide 1-6) |  |
| > 100 | > 100 | > 100 | > 100 | 1.3 ± 13 | CC(C)[C@@H]1NC(=O)[C@H](C)NC(=O)[C@H](Cc2c[nH]cn2)NC(=O)[C@H](C)NC(=O)[C@@H](N)CSSC[C@@H](C(N)=O)NC(=O)[C@H](CC(=O)O)NC1=O [H-CAHAVDC-NH2, H-Cys-Ala-His-Ala-Val-Asp-Cys-NH2] (H-CAHAVDC-NH2; disulfide 1-7) |  |
| > 100 | > 100 | > 100 | > 100 | 4.8 ± 6.5 | CC[C@H](C)[C@@H]1NC(=O)[C@H](CC(=O)O)NC(=O)[C@H](C(C)C)NC(=O)CNC(=O)[C@H](Cc2c[nH]cn2)NC(=O)[C@H](C)NC(=O)[C@@H](NC(C)=O)CSSC[C@@H](C(N)=O)NC1=O [reference compound] (Ac-CAHGVDIC-NH2; disulfide 1-8) |  |
| > 100 | > 100 | > 100 | > 100 | 5.7 ± 7.8 | CC(C)[C@@H]1NC(=O)CNC(=O)[C@H](Cc2c[nH]cn2)NC(=O)[C@H](C)NC(=O)[C@@H](N)CSSC[C@@H](C(N)=O)NC(=O)[C@H](CC(=O)O)NC1=O [H-CAHGVDC-NH2, reference compound] (H-CAHGVDC-NH2; disulfide 1-7) |  |
